Source: ChEMBL document CHEMBL5241130, “Integrating a phenotypic screening with a structural simplification strategy to identify 4-phenoxy-quinoline derivatives to potently disrupt the mitotic localization of Aurora kinase B” (Bioorg Med Chem, 2023)

Legend:
Assay type in all cases: cell-based
[1] = molecular target: T1, Aurora kinase A (Homo sapiens) (UniProt O14965); experiment: Inhibition of AURKA in human RPE-MYC H2B-GFP cells assessed as inhibition of autophosphorylation of AURKA at Thr288 residue by measuring residual enzyme activity at 10 uM measured after 6 hrs by immunofluorescence staining analysis (reference value: 100 +/-1%)
T1 sequence (whole entry): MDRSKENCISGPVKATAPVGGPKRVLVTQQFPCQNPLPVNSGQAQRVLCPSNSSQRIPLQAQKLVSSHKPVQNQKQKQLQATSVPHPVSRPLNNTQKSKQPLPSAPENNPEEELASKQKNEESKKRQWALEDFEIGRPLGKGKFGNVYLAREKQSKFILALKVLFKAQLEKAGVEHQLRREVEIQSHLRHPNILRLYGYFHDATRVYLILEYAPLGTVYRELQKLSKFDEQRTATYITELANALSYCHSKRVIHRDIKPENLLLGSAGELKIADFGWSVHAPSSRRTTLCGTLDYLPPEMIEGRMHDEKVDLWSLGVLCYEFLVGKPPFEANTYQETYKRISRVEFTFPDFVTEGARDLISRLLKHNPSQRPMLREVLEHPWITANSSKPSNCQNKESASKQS

[2] = molecular target: T1, Aurora kinase A (Homo sapiens); experiment: Inhibition of AURKA in human RPE-MYC H2B-GFP cells assessed as inhibition of autophosphorylation of AURKA at Thr288 residue by measuring residual enzyme activity at 20 uM measured after 6 hrs by immunofluorescence staining analysis (reference value: 100 +/-1%)
[3] = molecular target: T1, Aurora kinase A (Homo sapiens); experiment: Inhibition of AURKA in human RPE-MYC H2B-GFP cells assessed as inhibition of autophosphorylation of AURKA at Thr288 residue by measuring residual enzyme activity at 40 uM measured after 6 hrs by immunofluorescence staining analysis (reference value: 100+/-1%)
[4] = molecular target: Aurora kinase B (Homo sapiens) (UniProt Q96GD4); experiment: Inhibition of AURKB in human RPE-MYC H2B-GFP cells assessed as inhibition of histone H3 phosphorylation at Ser10 residue by measuring residual enzyme activity at 10 uM measured after 6 hrs by immunofluorescence staining analysis (reference value: 100 +/-9%)
Sequence of Aurora kinase B (Homo sapiens) (Q96GD4 whole entry): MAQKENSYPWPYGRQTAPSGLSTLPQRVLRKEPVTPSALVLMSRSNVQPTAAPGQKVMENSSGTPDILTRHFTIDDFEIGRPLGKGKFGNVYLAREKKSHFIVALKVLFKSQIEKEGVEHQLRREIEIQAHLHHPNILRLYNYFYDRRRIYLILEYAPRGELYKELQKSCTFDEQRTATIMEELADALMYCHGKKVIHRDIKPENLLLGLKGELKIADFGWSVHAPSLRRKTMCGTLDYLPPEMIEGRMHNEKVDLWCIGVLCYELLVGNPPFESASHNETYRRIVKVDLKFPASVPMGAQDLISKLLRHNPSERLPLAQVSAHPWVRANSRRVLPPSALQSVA

[5] = molecular target: Aurora kinase B (Homo sapiens) (UniProt Q96GD4); experiment: Inhibition of AURKB in human RPE-MYC H2B-GFP cells assessed as inhibition of histone H3 phosphorylation at Ser10 residue by measuring residual enzyme activity at 20 uM measured after 6 hrs by immunofluorescence staining analysis (reference value: 100 +/-9%)
[6] = molecular target: Aurora kinase B (Homo sapiens) (UniProt Q96GD4); experiment: Inhibition of AURKB in human RPE-MYC H2B-GFP cells assessed as inhibition of histone H3 phosphorylation at Ser10 residue by measuring residual enzyme activity at 40 uM measured after 6 hrs by immunofluorescence staining analysis (reference value: 100 +/-9%)
[7] = molecular target: Aurora kinase B (Homo sapiens) (UniProt Q96GD4); experiment: Disruption of mitotic localization of AURKB in human RPE-MYC H2B-GFP cells assessed as proportion of polyploid cells in fully attached cell population at 10 uM measured after 72 hrs by fluorescence high content cell imaging analysis (Rvb <1%)
[8] = molecular target: Aurora kinase B (Homo sapiens) (UniProt Q96GD4); experiment: Disruption of mitotic localization of AURKB in human RPE-MYC H2B-GFP cells assessed as proportion of polyploid cells in fully attached cell population at 20 uM measured after 72 hrs by fluorescence high content cell imaging analysis (Rvb <1%)
[9] = molecular target: Aurora kinase B (Homo sapiens) (UniProt Q96GD4); experiment: Disruption of mitotic localization of AURKB in human RPE-MYC H2B-GFP cells assessed as proportion of polyploid cells in fully attached cell population at 40 uM measured after 72 hrs by fluorescence high content cell imaging analysis (Rvb <1%)
[10] = molecular target: Aurora kinase B (Homo sapiens) (UniProt Q96GD4); experiment: Disruption of mitotic localization of AURKB in human RPE-MYC H2B-GFP cells assessed as mitotic index at 10 uM measured after 6 hrs by fluorescence high content cell imaging analysis (reference value: 4.7+/-0.4%)
[11] = molecular target: Aurora kinase B (Homo sapiens) (UniProt Q96GD4); experiment: Disruption of mitotic localization of AURKB in human RPE-MYC H2B-GFP cells assessed as mitotic index at 20 uM measured after 6 hrs by fluorescence high content cell imaging analysis (reference value: 4.7+/-0.4%)
[12] = molecular target: Aurora kinase B (Homo sapiens) (UniProt Q96GD4); experiment: Disruption of mitotic localization of AURKB in human RPE-MYC H2B-GFP cells assessed as mitotic index at 40 uM measured after 6 hrs by fluorescence high content cell imaging analysis (reference value: 4.7+/-0.4%)
[13] = molecular target: Aurora kinase B (Homo sapiens) (UniProt Q96GD4); experiment: Disruption of mitotic localization of AURKB in human RPE-MYC H2B-GFP cells assessed as induction of mitotic arrest measured after 24 hrs by fluorescence high content cell imaging analysis
[14] = molecular target: Aurora kinase B (Homo sapiens) (UniProt Q96GD4); experiment: Disruption of mitotic localization of AURKB in human RPE-MYC H2B-GFP cells assessed as induction of polyploidy by fluorescence high content cell imaging analysis

Activity [1]: 106%
Activity [2]: 109%
Activity [3]: 115%
Activity [4]: 104%
Activity [5]: 102%
Activity [6]: 105%
Activity [7]: 100%
Activity [8]: 100%
Activity [9]: 100%
Activity [10]: 15.6%
Activity [11]: 16.2%
Activity [12]: 15.6%
MEC [13]: 10 µM
MEC [14]: 10 µM
SMILES: Nc1ccc(Oc2ccnc3ccccc23)cc1
